Consider eleven compounds from patent publication US10688088B2 (priority 2015, dated 2020).

Where two headings read alike, the source gives them in different places.

Type in all cases: cell-based, Mycobacterium tuberculosis
In assay [1] the test system is M tuberculosis T3609, resistant to ofloxacin (OFX) and streptomycin. Set-up: MIC 2: MIC of the substance tested in combination / MIC 1: MIC of the substance tested alone: unit not given beside the values. Particulars: for MIC 2: MIC of the substance tested in combination / MIC 1: MIC of the substance tested alone: strain T3609.
Assay [2] relates to M. tuberculosis T113, resistant to isoniazid (INH), rifampicin (RIF), ethambutol (ETB) and ofloxacin (OFX). Set-up: MIC 2: MIC of the substance tested in combination / MIC 1: MIC of the substance tested alone: unit not given beside the values. The conditions noted are these: for MIC 2: MIC of the substance tested in combination / MIC 1: MIC of the substance tested alone: strain T113.

Assay [3] relates to M. tuberculosis. Particulars: all the strains (H37Rv, T3609, T113).

Turning to `O=C(O)c1cn(C2CC2)c2cc(N3CCNCC3)c(F)cc2c1=O` [CPX, ciprofloxacin], the “MIC 2: MIC of the substance tested in combination” value (shortened to “MIC 2: MIC of the substance tested”) in assay [1] (combination MEF + CPX) came to 3.12; in assay [2] (combination MEF + CPX) it was 0.31. For the same compound, the “MIC 1: MIC of the substance tested alone” value in assay [1] amounted to 5.00; in assay [2], 0.62.

In the case of `CC[C@@H](CO)NCCN[C@@H](CC)CO` [ETB, ethambutol], the “MIC 2: MIC of the substance tested” value in assay [2] (combination MFL + ETB) is reported as 12.5. In addition, the “MIC 1: MIC of the substance tested alone” value in assay [2] worked out at 25.0.

Turning to `COc1c(N2CCNC(C)C2)c(F)cc2c(=O)c(C(=O)O)cn(C3CC3)c12` (stereo not drawn) [GAT, gatifloxacin], the “MIC 2: MIC of the substance tested” value worked out at 0.31 in assay [1] (combination MFL + GAT) and 0.15 in assay [2] (combination MFL + GAT). Further, the “MIC 1: MIC of the substance tested alone” value in assay [1] was determined as 0.62; in assay [2], 0.12.

Turning to `NNC(=O)c1ccncc1` [INH, isoniazid], the “MIC 2: MIC of the substance tested” value in assay [1] (combination MFL + INH) is on record as 0.015; in assay [2] (combination MFL + INH) it was 3.12. Besides, the “MIC 1: MIC of the substance tested alone” value in assay [1] was found to be 0.5; in assay [2], 6.25.

As to `C[C@H]1COc2c(N3CCN(C)CC3)c(F)cc3c(=O)c(C(=O)O)cn1c23` [LVX, levofloxacin], the results for the “MIC 2: MIC of the substance tested” value in assay [1] (combination MEF + LVX) and in assay [2] (combination MEF + LVX) were 2.50 and 0.31, respectively. In addition, the “MIC 1: MIC of the substance tested alone” value was determined as 2.50 in assay [1] and 0.62 in assay [2].

In the case of `CC(=O)NC[C@H]1CN(c2ccc(N3CCOCC3)c(F)c2)C(=O)O1` [LYN, linezolid], the “MIC 2: MIC of the substance tested” value in assay [2] (combination MFL + LYN) stood at 0.31. For the same compound, in assay [2], the “MIC 1: MIC of the substance tested alone” value stood at 0.50.

In the case of `COc1c(N2C[C@@H]3CCCN[C@@H]3C2)c(F)cc2c(=O)c(C(=O)O)cn(C3CC3)c12` [MOX, moxifloxacin], the “MIC 2: MIC of the substance tested” value in assay [1] (combination MFL + MOX) turned out to be 0.62; in assay [2] (combination MFL + MOX) it was 0.31. For the same compound, the “MIC 1: MIC of the substance tested alone” value in assay [1] is 1.25; in assay [2], 0.25.

With `OC(c1cc(C(F)(F)F)nc2c(C(F)(F)F)cccc12)C1CCCCN1` (stereo not drawn) [Mefloquine, mefloquine], the “MIC 2: MIC of the substance tested” value in assay [1] (combination MEF + CPX) came to 3.12; in assay [1] (combination MEF + LVX), 2.50; in assay [1] (combination MFL + GAT) it was 0.31; in assay [1] (combination MFL + INH) it was 0.015; in assay [1] (combination MFL + MOX), 0.62; in assay [1] (combination MFL + OFX), 2.5. The “MIC 2: MIC of the substance tested” value in assay [1] (combination MFL + PYR) is reported as 0.62; in assay [1] (combination MFL + SPR), 0.62; in assay [2] (combination MEF + CPX) it was 0.31; in assay [2] (combination MEF + LVX) it was 0.31; in assay [2] (combination MFL + GAT) it was 0.15; in assay [2] (combination MFL + INH), 3.12. Besides, the “MIC 2: MIC of the substance tested” value stood at 0.31 in assay [2] (combination MFL + LYN); 0.31 in assay [2] (combination MFL + MOX); 0.62 in assay [2] (combination MFL + OFX); 0.62 in assay [2] (combination MFL + PYR); 0.12 in assay [2] (combination MFL + SPR). Also, the MICcombination stood at 25 µg/mL in assay [1] (strain T3609, Tables 1B and 2A); 25 µg/mL in assay [2] (strain T113, Table 2B). In addition, the “cross-resistance (MIC across strains)” value in assay [3] is on record as “no cross-resistance”.

With `CC1COc2c(N3CCN(C)CC3)c(F)cc3c(=O)c(C(=O)O)cn1c23` (stereo not drawn) [OFX, ofloxacin], the “MIC 2: MIC of the substance tested” value in assay [1] (combination MFL + OFX) worked out at 2.5; in assay [2] (combination MFL + OFX), 0.62. Further, the results for the “MIC 1: MIC of the substance tested alone” value in assay [1] and in assay [2] were 5.0 and 1.25, respectively.

As for `NC(=O)c1cnccn1` [PYR, pyrazinamide], the “MIC 1: MIC of the substance tested alone” value in assay [1] and in assay [2] was >100 throughout.

In the case of `C[C@@H]1CN(c2c(F)c(N)c3c(=O)c(C(=O)O)cn(C4CC4)c3c2F)C[C@H](C)N1` [SPR, sparfloxacin], the entries for the “MIC 2: MIC of the substance tested” value in assay [1] (combination MFL + SPR) and in assay [2] (combination MFL + SPR) were 0.62 and 0.12, respectively. The “MIC 1: MIC of the substance tested alone” value in assay [1] was determined as 1.25; in assay [2], 0.12.
